Values of other authors as cited in patent US9687472B2, “Use of antioxidants as an adjuvant to immune stimulators to augment tumor immunity and prevent toxicity associated with oxidative stress” (BATU BIOLOGICS, priority 2014, dated 2017).

How the values were obtained:
[1] = tested on: circulating apoptotic endothelial cells; conditions: 2.5 g intravenously and 3 days of 4 g per day oral
[2] = i.v. 66 mg/kg/hr for 24 hours
[3] = 10 mg/kg intravenously before induction of sepsis
[4] = tested on: endothelial cell; conditions: in vitro
[5] = tested on: human umbilical vein endothelial (HUVEC) cells; conditions: in response to TNF-alpha, in vitro
[6] = tested on: human endothelial cells; conditions: hypoxic (24 hours; 1% O(2))/reoxygenated (3 hours; 21% O(2)) cells
[7] = tested on: complement system; conditions: patients

## O=C1O[C@H]([C@@H](O)CO)C(O)=C1O [AA, ascorbic acid]
[1]
  circulating apoptotic endothelial cells: reduction
[2]
  24 hr total fluid infusion volume: statistically significant reductions
  fluid retention (indicative of vascular leakage): statistically significant reductions
  need for mechanical ventilation: 12.1 ± 8.8 days
[3]
  survival: 50%
[4]
  TNF-alpha induced endothelial cell apoptosis: reduction
[5]
  endothelial cell expression of ICAM-1: reduce

## O=C[C@@H](O)[C@@H](O)[C@H](O)[C@H](O)CO [D-mannose]
[6]
  complement activation (iC3b deposition): blocked activation

## O=C[C@H](O)[C@H](O)[C@@H](O)[C@@H](O)CO [L-mannose]
[6]
  complement activation (iC3b deposition): not

## CC(=O)N[C@H]1C(O)O[C@H](CO)[C@@H](O)[C@@H]1O (stereo partly drawn) [N-acetyl-D-glucosamine]
[6]
  complement activation (iC3b deposition): blocked activation

B1: C1 esterase inhibitor: complement inhibitor (protein, UniProt P05155 23-500, looked up)
Plasma protease C1 inhibitor: NPNATSSSSQDPESLQDRGEGKVATTVISKMLFVEPILEVSSLPTTNSTTNSATKITANTTDEPTTQPTTEPTTQPTIQPTQPTTQLPTDSPTQPTTGSFCPGPVTLCSDLESHSTEAVLGDALVDFSLKLYHAFSAMKKVETNMAFSPFSIASLLTQVLLGAGENTKTNLESILSYPKDFTCVHQALKGFTTKGVTSVSQIFHSPDLAIRDTFVNASRTLYSSSPRVLSNNSDANLELINTWVAKNTNNKISRLLDSLPSDTRLVLLNAIYLSAKWKTTFDPKKTRMEPFHFKNSVIKVPMMNSKKYPVAHFIDQTLKAKVGQLQLSHNLSLVILVPQNLKHRLEDMEQALSPSVFKAIMEKLEMSKFQPTLLTLPRIKVTTSQDMLSIMEKLEFFDFSYDLNLCGLTEDPDLQVSAMQHQTVLELTETGVEAAAASAISVARTLLVFEVQQPFLFVLWDQQHKFPVFMGRVYDPRA
[7]
  IL-2 induced hypotension and complement activation: capable of reducing
